Results published in PubChem BioAssay (NCI).
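Test compounds were applied to cells in 96-well plates for 48 hours at 5 doses. Abbreviation: GI50, concentration required for 50% inhibition of growth. Definition used: TGI = concentration required for complete inhibition of growth.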

How the values were obtained:
Assay in all cases: DTP human tumour cell line panel, 48 h
RPMI-8226 leukemia = tested on: RPMI-8226 leukemia
HOP-92 NSCLC = tested on: HOP-92 NSCLC
SW-620 colon = tested on: SW-620 colon
U251 CNS = tested on: U251 CNS
NCI/ADR-RES ovarian = tested on: NCI/ADR-RES ovarian
SK-MEL-2 melanoma = tested on: SK-MEL-2 melanoma
MALME-3M melanoma = tested on: MALME-3M melanoma
T-47D breast = tested on: T-47D breast
OVCAR-8 ovarian = tested on: OVCAR-8 ovarian
786-0 renal = tested on: 786-0 renal

| SMILES | GI50 (RPMI-8226 leukemia) [µM] | TGI (RPMI-8226 leukemia) [µM] | GI50 (HOP-92 NSCLC) [µM] | TGI (HOP-92 NSCLC) [µM] | GI50 (SW-620 colon) [µM] | TGI (SW-620 colon) [µM] | GI50 (U251 CNS) [µM] | TGI (U251 CNS) [µM] | GI50 (NCI/ADR-RES ovarian) [µM] | TGI (NCI/ADR-RES ovarian) [µM] | GI50 (SK-MEL-2 melanoma) [µM] | TGI (SK-MEL-2 melanoma) [µM] | GI50 (MALME-3M melanoma) [µM] | TGI (MALME-3M melanoma) [µM] | GI50 (T-47D breast) [µM] | TGI (T-47D breast) [µM] | GI50 (OVCAR-8 ovarian) [µM] | TGI (OVCAR-8 ovarian) [µM] | GI50 (786-0 renal) [µM] | TGI (786-0 renal) [µM] |
| --- | --- | --- | --- | --- | --- | --- | --- | --- | --- | --- | --- | --- | --- | --- | --- | --- | --- | --- | --- | --- |
| COc1cc(-c2nc3ccccc3o2)cc(CN2CCCCC2)c1O | 2.85 | > 100 | 27 | > 100 | 1.92 | 8.13 | 1.84 | 9.54 | 5.79 | 76.4 | 4.58 | 15.8 | 1.8 | 3.87 | 17 | > 100 | 11.4 | 94.3 | 20.3 | 89.8 |
| N#Cc1nc(C#N)c(Sc2ccccc2)c(Sc2ccccc2)c1Sc1ccccc1 | 0.638 | > 28.3 | 2.52 | 20.9 | 0.232 | 0.5 | 0.51 | 1.86 | 0.504 | > 100 | 2.17 | > 21.6 | 1.48 | 5.04 | 0.584 | 2.48 | 0.287 | 0.911 | 0.392 | – |
| CC(=O)/C(Br)=C/c1ccc(Br)o1 | 4.73 | 13.1 | 8.63 | 23.9 | 2.1 | 4.87 | 14.4 | 27.8 | 7.88 | 38.3 | 8.59 | 23.9 | 6.15 | 14.3 | 8.89 | 24.2 | 3.33 | > 35.8 | 16.5 | 34.2 |
| COS(C)(=O)=O | – | > 2 | – | > 2 | – | > 2 | – | > 2 | – | > 2 | – | > 2 | – | > 2 | – | > 2 | – | > 2 | – | > 2 |
| CCN(CC)c1ccc(-c2cc(-c3cc(OC)c(OC)c(OC)c3)nc(N3CCC(O)CC3)c2C#N)cc1 | 0.232 | 4.78 | 0.215 | 0.689 | 0.448 | 12.7 | 0.398 | 1.8 | 0.272 | 5.95 | 0.289 | 0.889 | 0.303 | 1.18 | 0.495 | 3.8 | 0.441 | 7.44 | 0.337 | 20.3 |
| O=C(/C=C/c1ccccn1)c1ccc(OCc2nnc(-c3ccc(Cl)cc3)o2)cc1 | 0.296 | 1.06 | 2.35 | 6.33 | 1.91 | 3.93 | 1.64 | 3.05 | 3.67 | 41.3 | 3.29 | 8.61 | 2.28 | 4.46 | 2.65 | 8.64 | 2.48 | 5.57 | 1.78 | 3.23 |
